Experimental data from patent US20230167088A1, “1-PYRAZINYLPYRAZOLYL-3-OXYALKYL ACIDS AND THEIR DERIVATIVES, AND THEIR USE FOR CONTROL OF UNDESIRED PLANT GROWTH” (BAYER AKTIENGESELLSCHAFT, priority 2020, published 2023).

Assays:
ALOMY [1] = assay: Herbicidal post-emergence action 1a (greenhouse pots, visual rating); assay type: in vivo, Alopecurus myosuroides; conditions: Dosage 320 g/ha; rated visually about 3 weeks after treatment; 100% = plants have died, 0% = like control plants
Procedure, shortened: (§1)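 Visual scoring versus untreated plants (100% = plants dead, 0% = as control) followed roughly 3 weeks in the greenhouse after treatment. Plants grown in sandy loam pots had been sprayed on green parts at the one-leaf stage, 2–3 weeks post-sowing, with aqueous WP/EC preparations containing 0.5% additive, 600 l/ha, at 320 and/or 80 g/ha.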

AVEFA [2] = assay: as above; assay type: in vivo, Avena fatua; conditions: rated visually about 3 weeks after treatment, 100% = plants have died, 0% = like control plants
Procedure, shortened: as §1

ECHCG [3] = assay: as above; assay type: in vivo, Echinochloa crus-galli; conditions: rated visually about 3 weeks after treatment, 100% = plants have died, 0% = like control plants
Procedure, shortened: as §1

LOLRI [4] = assay: as above; assay type: in vivo, Lolium rigidum; conditions: Dosage 320 g/ha; rated visually about 3 weeks after treatment; 100% = plants have died, 0% = like control plants
Procedure, shortened: as §1

SETVI [5] = assay: as above; assay type: in vivo, Setaria viridis; conditions: rated visually about 3 weeks after treatment, 100% = plants have died, 0% = like control plants
Procedure, shortened: as §1

ABUTH [6] = assay: as above; assay type: in vivo, Abutilon theophrasti; conditions: visual rating about 3 weeks after treatment
Procedure, shortened: as §1

AMARE [7] = assay: as above; assay type: in vivo, Amaranthus retroflexus; conditions: visual rating about 3 weeks after treatment
Procedure, shortened: as §1

PHBPU [8] = assay: as above; assay type: in vivo, Pharbitis purpurea; conditions: visual rating about 3 weeks after treatment
Procedure, shortened: as §1

VERPE [9] = assay: as above; assay type: in vivo, Veronica persica; conditions: visual rating about 3 weeks after treatment
Procedure, shortened: as §1

ALOMY [10] = assay: Herbicidal pre-emergence action 2a (greenhouse pots, visual scoring); assay type: in vivo, Alopecurus myosuroides; conditions: dosage 320 g/ha, visual scoring after about 3 weeks
Procedure, shortened: (§2)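 Pots of covered seed were sprayed pre-emergence at 320 and/or 80 g/ha. Roughly three weeks of greenhouse growth preceded visual scoring in percent versus untreated controls.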

AVEFA [11] = assay: as above; assay type: in vivo, Avena fatua; conditions: dosage 320 g/ha, visual scoring after about 3 weeks
Procedure, shortened: as §2

ECHCG [12] = assay: as above; assay type: in vivo, Echinochloa crus-galli; conditions: dosage 320 g/ha, visual scoring after about 3 weeks
Procedure, shortened: as §2

LOLRI [13] = assay: as above; assay type: in vivo, Lolium rigidum; conditions: dosage 320 g/ha, visual scoring after about 3 weeks vs untreated controls
Procedure, shortened: as §2

SETVI [14] = assay: as above; assay type: in vivo, Setaria viridis; conditions: dosage 320 g/ha, visual scoring after about 3 weeks vs untreated controls
Procedure, shortened: as §2

ABUTH [15] = assay: as above; assay type: in vivo, Abutilon theophrasti; conditions: dosage 320 g/ha, visual scoring after about 3 weeks vs untreated controls
Excerpt: (§3) [table] a) Seeds of monocotyledonous and dicotyledonous weed plants and crop plants are placed in plastic or organic plant pots and covered with soil. The compounds of the invention, formulated in the form of wettable powders (WP) or as emulsion concentrates (EC), are then applied onto the surface of the covering soil as aqueous suspension or emulsion with addition of 0.5% additive at a water application rate of 600 1/ha (converted). After the treatment, the pots are placed in a greenhouse and kept under good growth conditions for the trial plants. After about 3 weeks, the effect of the preparations is scored visually in comparison with untreated controls as percentages. For example, 100% activity=the plants have died, 0% activity=like control plants. Tables B1 to B15 below show the effects of selected compounds of the general formula (I) according to Tables 1 and 2 on various harmful plants and an application rate corresponding to 320 g/ha and/or 80 g/ha, which were obtained by the experimental procedure mentioned above.

AMARE [16] = assay: as above; assay type: in vivo, Amaranthus retroflexus; conditions: dosage 320 g/ha, visual scoring after about 3 weeks vs untreated controls
Procedure, shortened: as §2

MATIN = assay: as above; assay type: in vivo, Matricaria inodora; conditions: dosage 320 g/ha, visual scoring after about 3 weeks vs untreated controls
Procedure, shortened: as §2

PHBPU [17] = assay: as above; assay type: in vivo, Pharbitis purpurea; conditions: dosage 320 g/ha, visual scoring after about 3 weeks vs untreated controls
Excerpt: as §3

POLCO [18] = assay: as above; assay type: in vivo, Polygonum convolvulus; conditions: dosage 320 g/ha, visual scoring after about 3 weeks vs untreated controls
Procedure, shortened: as §2

VERPE [19] = assay: as above; assay type: in vivo, Veronica persica; conditions: dosage 320 g/ha, visual scoring after about 3 weeks vs untreated controls
Procedure, shortened: as §2

POLCO [20] = assay: Herbicidal post-emergence action 1a (greenhouse pots, visual rating); assay type: in vivo, Polygonum convolvulus; conditions: visual rating about 3 weeks after treatment
Procedure, shortened: as §1

O=C(O)COc1nn(-c2cnccn2)c(-c2cncc(F)c2)c1Cl [Example I-92]
90%: Post-emergence action against AVEFA in % (AVEFA [2]; Dosage 80 g/ha) | Post-emergence action against AVEFA in % (AVEFA [2]; Dosage 320 g/ha) | Post-emergence action against ECHCG in % (ECHCG [3]; Dosage 80 g/ha) | Post-emergence action against ECHCG in % (ECHCG [3]; Dosage 320 g/ha) | Post-emergence action against LOLRI in % (LOLRI [4]) | Post-emergence action against ABUTH in % (ABUTH [6]; dosage 320 g/ha) | Post-emergence action against AMARE in % (AMARE [7]; dosage 320 g/ha) | Post-emergence action against PHBPU in % (PHBPU [8]; dosage 320 g/ha) | Post-emergence action against VERPE in % (VERPE [9]; dosage 320 g/ha) | Pre-emergence action against ALOMY in % (ALOMY [10]) | Pre-emergence action against ECHCG in % (ECHCG [12]) | Pre-emergence action against ABUTH in % (ABUTH [15]) | Pre-emergence action against PHBPU in % (PHBPU [17]) | Pre-emergence action against POLCO in % (POLCO [18])
80%: Post-emergence action against ALOMY in % (ALOMY [1]) | Post-emergence action against SETVI in % (SETVI [5]; Dosage 80 g/ha) | Post-emergence action against SETVI in % (SETVI [5]; Dosage 320 g/ha) | Post-emergence action against AMARE in % (AMARE [7]; dosage 80 g/ha) | Post-emergence action against PHBPU in % (PHBPU [8]; dosage 80 g/ha) | Post-emergence action against VERPE in % (VERPE [9]; dosage 80 g/ha)
100%: Pre-emergence action against AVEFA in % (AVEFA [11]) | Pre-emergence action against LOLRI in % (LOLRI [13]) | Pre-emergence action against SETVI in % (SETVI [14]) | Pre-emergence action against AMARE in % (AMARE [16]) | Pre-emergence action against MATIN in % (MATIN) | Pre-emergence action against VERPE in % (VERPE [19])

CCOC(=O)COc1nn(-c2cnccn2)c(-c2cncc(F)c2)c1Cl [Example I-91]
100%: Pre-emergence action against ECHCG in % (ECHCG [12]) | Pre-emergence action against LOLRI in % (LOLRI [13]) | Pre-emergence action against SETVI in % (SETVI [14]) | Pre-emergence action against AMARE in % (AMARE [16]) | Pre-emergence action against MATIN in % (MATIN)
90%: Post-emergence action against AVEFA in % (AVEFA [2]; Dosage 320 g/ha) | Post-emergence action against ECHCG in % (ECHCG [3]; Dosage 320 g/ha) | Post-emergence action against LOLRI in % (LOLRI [4]) | Post-emergence action against SETVI in % (SETVI [5]; Dosage 320 g/ha) | Post-emergence action against AMARE in % (AMARE [7]; dosage 320 g/ha) | Post-emergence action against PHBPU in % (PHBPU [8]; dosage 320 g/ha) | Pre-emergence action against AVEFA in % (AVEFA [11]) | Pre-emergence action against ABUTH in % (ABUTH [15]) | Pre-emergence action against PHBPU in % (PHBPU [17]) | Pre-emergence action against POLCO in % (POLCO [18]) | Pre-emergence action against VERPE in % (VERPE [19])
80%: Post-emergence action against SETVI in % (SETVI [5]; Dosage 80 g/ha) | Post-emergence action against ABUTH in % (ABUTH [6]; dosage 80 g/ha) | Post-emergence action against ABUTH in % (ABUTH [6]; dosage 320 g/ha) | Post-emergence action against AMARE in % (AMARE [7]; dosage 80 g/ha) | Post-emergence action against POLCO in % (POLCO [20]; dosage 80 g/ha) | Post-emergence action against POLCO in % (POLCO [20]; dosage 320 g/ha) | Post-emergence action against VERPE in % (VERPE [9]; dosage 80 g/ha) | Post-emergence action against VERPE in % (VERPE [9]; dosage 320 g/ha) | Pre-emergence action against ALOMY in % (ALOMY [10])
